Experimental data from patent EP0187355A1, “Process for preparing beta-lactam antibiotics” (E.R. Squibb & Sons, Inc., priority 1981, dated 1982).
Counter-ions that a name gives are not always drawn.

Experiments:
Assay in all cases: MIC, agar dilution
Assay type in all cases: cell-based
[1] = test system: Acinetobacter calcoaceticus, 8333; conditions: K-10 agar, 10^4 CFU, 37°C
How it was run: (§1)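 Test strains are first grown in broth at 37°C for 18–20 hours, then diluted 1:100. Compounds are serially halved and mixed into K-10 agar at final levels from 100 to 0.05 µg/ml. Each plate receives about 10^4 CFU per organism, and growth is scored after 18 hours at 37°C.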

[2] = test system: Citrobacter freundii, 9518; conditions: K-10 agar, 10^4 CFU, 37°C, 18 hours
How it was run: as §1

[3] = test system: Enterobacter aerogenes, 10078; conditions: Enterobacter aerogenes, 10078, K-10 agar, 10^4 CFU, 37°C, 18 hours
How it was run: as §1

Escherichia coli, 10857 = conditions: K-10 agar, 10^4 CFU, 37°C
How it was run: as §1

Escherichia coli, 10896 = conditions: K-10 agar, 10^4 CFU, 37°C, 18 hours
How it was run: as §1

Escherichia coli, 10909 = conditions: K-10 agar, 10^4 CFU, 37°C, 18 hours
How it was run: as §1

Escherichia coli, 8294 = conditions: K-10 agar, 10^4 CFU, 37°C
How it was run: as §1

[4] = test system: Klebsiella aerogenes, 10440; conditions: K-10 agar, 10^4 CFU, 37°C, 18 hours
How it was run: as §1

[5] = test system: Klebsiella pneumoniae, 9527; conditions: K-10 agar, 10^4 CFU, 37°C
How it was run: as §1

Proteus mirabilis, 3855 = conditions: K-10 agar, 10^4 CFU, 37°C
How it was run: as §1

Proteus rettgeri, 8479 = conditions: K-10 agar, 10^4 CFU, 37°C, 18 hours
How it was run: as §1

Proteus vulgaris, 9416 = conditions: K-10 agar, 10^4 CFU, 37°C, 18 hours
How it was run: as §1

[6] = test system: Pseudomonas aeruginosa, 8329; conditions: K-10 agar, 10^4 CFU, 37°C, 18 hours
How it was run: as §1

[7] = test system: Pseudomonas aeruginosa, 9545; conditions: K-10 agar, 10^4 CFU, 37°C
How it was run: as §1

Salmonella typhosa, 1195 = conditions: K-10 agar, 10^4 CFU, 37°C
How it was run: as §1

[8] = test system: Serratia marcescens, 9783; conditions: K-10 agar, 10^4 CFU, 37°C
How it was run: as §1

Shigella sonnei, 8449 = conditions: K-10 agar, 10^4 CFU, 37°C
How it was run: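 Agar dilution in K-10 agar; final drug 100–0.05 µg/ml, twofold steps. Inoculum 10^4 CFU/spot via multipoint inoculator from 18–20 h broth culture diluted 1:100. Incubation 37°C, 18 h; MIC = lowest concentration with no growth.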

[9] = test system: Staphylococcus aureus, 10165; conditions: Staphylococcus aureus, 10165, K-10 agar, 10^4 CFU, 37°C, 18 hours
How it was run: as §1

[10] = test system: Staphylococcus aureus, 1276; conditions: Staphylococcus aureus, 1276, K-10 agar, 10^4 CFU, 37°C, 18 hours
How it was run: as §1

[11] = test system: Staphylococcus aureus, 2399; conditions: Staphylococcus aureus, 2399, K-10 agar, 10^4 CFU, 37°C, 18 hours
How it was run: as §1

[12] = test system: Staphylococcus aureus, 2400; conditions: Staphylococcus aureus, 2400, K-10 agar, 10^4 CFU, 37°C, 18 hours
How it was run: as §1

[13] = test system: Streptococcus faecalis, 9011; conditions: Streptococcus faecalis, 9011, K-10 agar, 10^4 CFU, 37°C, 18 hours
How it was run: as §1

[14] = test system: Enterobacter cloacae, 8236; conditions: K-10 agar, 10^4 CFU, 37°C
How it was run: (§2)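 Broth cultures grown 18-20 h at 37°C, diluted 1:100 in K-10 broth, applied by multipoint inoculator at 10^4 CFU onto K-10 agar holding twofold compound dilutions, 100 to 0.05 µg/ml final. MIC taken as lowest concentration inhibiting growth.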

Micrococcus luteus, 2495 = conditions: K-10 agar, 10^4 CFU, 37°C
How it was run: as §2

[15] = test system: Streptococcus agalactiae, 9287; conditions: K-10 agar, 10^4 CFU, 37°C
How it was run: as §2

## CON=C(C(=O)NC1C(=O)N(S(=O)(=O)O)C1C)c1csc(N)n1 (stereo not drawn) [Example 9, [3S-[3α(Z),4α]]-3-[[2-Amino-4-thiazolyl)-methoxyimino)acetyl]amino-4-methyl-2-oxo-1-azetidinesulfonic acid, potassium salt]
[1]; 18 hours, potassium salt
  M.I.C.: 25 µg/mL
[2]
  M.I.C.: 0.1 µg/mL
[3]; potassium salt
  M.I.C.: 0.2 µg/mL
Escherichia coli, 10857; 18 hours
  M.I.C.: <0.05 µg/mL
Escherichia coli, 10896
  M.I.C.: 0.1 µg/mL
Escherichia coli, 10909
  M.I.C.: <0.05 µg/mL
Escherichia coli, 8294; 18 hours
  M.I.C.: 0.1 µg/mL
[4]
  M.I.C.: 0.2 µg/mL
[5]; 18 hours, potassium salt
  M.I.C.: <0.05 µg/mL
Proteus mirabilis, 3855; 18 hours, potassium salt
  M.I.C.: <0.05 µg/mL
Proteus rettgeri, 8479
  M.I.C.: <0.05 µg/mL
Proteus vulgaris, 9416
  M.I.C.: <0.05 µg/mL
[6]
  M.I.C.: 100 µg/mL
[7]; 18 hours, potassium salt
  M.I.C.: 0.4 µg/mL
Salmonella typhosa, 1195; 18 hours
  M.I.C.: <0.05 µg/mL
[8]; 18 hours, potassium salt
  M.I.C.: 0.2 µg/mL
Shigella sonnei, 8449; 18 hours
  M.I.C.: 0.1 µg/mL
[9]
  M.I.C.: - (A dash (-) in the tables means that the compound tested did not show activity against the particular organism at 100 µg/ml)
[10]
  M.I.C.: 100 µg/mL
[11]; potassium salt
  M.I.C.: 50 µg/mL
[12]
  M.I.C.: 50 µg/mL
[13]
  M.I.C.: - (A dash (-) in the tables means that the compound tested did not show activity against the particular organism at 100 µg/ml)
[14]; 18 hours, potassium salt
  M.I.C.: 0.1 µg/mL
Micrococcus luteus, 2495; 18 hours, potassium salt
  M.I.C.: 6.3 µg/mL
[15]; 18 hours, potassium salt
  M.I.C.: 1.6 µg/mL

## CC1C(NC(=O)C(NC(=O)C(N)=O)c2cccs2)C(=O)N1S(=O)(=O)O (racemic) [Example 14, [3S-[3α(±),4β]]-3-[[[(aminooxoacetyl)amino]-2-thienylacetyl]amino]-4-methyl-2-oxo-1-azetidine-sulfonic acid, potassium salt]
[1]; Acinetobacter calcoaceticus, 8333, 18 h, read-out: M.I.C.
  MIC: 100 µg/mL
[2]; read-out: M.I.C.
  MIC: 1.6 µg/mL
[3]; Klebsiella aerogenes, 10078, 18 h, read-out: M.I.C.
  MIC: 3.1 µg/mL
Escherichia coli, 10857; Escherichia coli, 10857, 18 h
  MIC: 0.4 µg/mL
Escherichia coli, 10896
  MIC: 1.6 µg/mL
Escherichia coli, 10909
  MIC: 0.8 µg/mL
Escherichia coli, 8294; Escherichia coli, 8294, 18 h
  MIC: 1.6 µg/mL
[4]; read-out: M.I.C.
  MIC: 3.1 µg/mL
[5]; Klebsiella pneumoniae, 9527, 18 h, read-out: M.I.C.
  MIC: 1.6 µg/mL
Proteus mirabilis, 3855; Proteus mirabilis, 3855, 18 h, read-out: M.I.C.
  MIC: 0.8 µg/mL
Proteus rettgeri, 8479; Providencia rettgeri, read-out: M.I.C.
  MIC: 0.8 µg/mL
Proteus vulgaris, 9416; read-out: M.I.C.
  MIC: 0.8 µg/mL
[6]; read-out: M.I.C.
  MIC: 100 µg/mL
[7]; Pseudomonas aeruginosa, 9545, 18 h, read-out: M.I.C.
  MIC: 3.1 µg/mL
Salmonella typhosa, 1195; Salmonella enterica, TYPHOSA, 18 h
  MIC: 0.8 µg/mL
[8]; Serratia marcescens, 9783, 18 h, read-out: M.I.C.
  MIC: 3.1 µg/mL
Shigella sonnei, 8449; Shigella sonnei, 8449, 18 h
  MIC: 0.8 µg/mL
[9]; read-out: M.I.C.
  MIC: > 100 µg/mL
[10]; read-out: M.I.C.
  MIC: 50 µg/mL
[11]; Staphylococcus aureus, 2399, 18 h, read-out: M.I.C.
  MIC: 50 µg/mL
[12]; read-out: M.I.C.
  MIC: 100 µg/mL
[13]; Enterococcus faecalis, read-out: M.I.C.
  MIC: > 100 µg/mL
[14]; Enterobacter cloacae, 8236, 18 h
  MIC: 3.1 µg/mL
Micrococcus luteus, 2495; Micrococcus luteus, 2495, 18 h, read-out: M.I.C.
  MIC: 12.5 µg/mL
[15]; Streptococcus agalactiae, 9287, 18 h, read-out: M.I.C.
  MIC: 3.1 µg/mL
